In article PMC8003975 (Cancers, 2021):

Legend:
Cal27 and JHU029 cells = assay: HNC cell cytotoxicity assay of other bitter melon compounds (Figure S1); format: cell-based, human; conditions: 48 hr
Description: Cal27, JHU029, JHU022 and NOK were seeded in 96 well-plate (5000 cells/well) and cells were treated with different concentration of M-I for 48 h. There were untreated control and DMSO treated vehicle control group for comparison. Cytotoxicity assay was performed using Cell Counting Kit-8 (Dojindo Molecular Technology, Rockville, MD, USA) according to manufacturer instruction.
Supplementary Materials: Momordicine-I, a Bitter
Activity in Head and Neck Cancer Involving c-Met
Figure S1. Cal27 and JHU029 ells were treated with momordicine-I (M-I), momordicosideK (MK), karavilageninD (KD) at indicated doses for 48 hr and cytotoxicity assay was performed. Small bar indicates standard error.
Figure S2. Whole blot for Figure 2A. […]

[1] = design: method as in PMID 28441771, PMID 29231907, PMID 28587113; conditions: preclinical and clinical studies; cited from earlier work
[2] = literature-reported biology of the tentatively identified metabolite; no reference given; cited from earlier work

With `COC(C)(C)/C=C/C[C@@H](C)[C@H]1CC[C@@]2(C)[C@@H]3[C@@H](O[C@@H]4O[C@H](CO)[C@@H](O)[C@H](O)[C@H]4O)C=C4[C@@H](CC[C@H](O)C4(C)C)[C@]3(C=O)CC[C@]12C` [MK, momordicoside K] the “amount required for ~40% cell death” value (Cal27 and JHU029 cells) was over 50 µg/mL.
In the case of `COc1cc2c(Oc3ccc(NC(=O)C4(C(=O)Nc5ccc(F)cc5)CC4)cc3F)ccnc2cc1OCCCN1CCOCC1` [Foretinib], the adverse side effects [1] is listed as “fatigue, hypertension, and gastrointestinal toxicities”.
In the case of `C[C@H](C[C@@H](O)[C@H](O)C(C)(C)O)[C@H]1CC[C@@]2(C)[C@@H]3C=C[C@@]45OC[C@]3(CC[C@]12C)[C@@H]4CC[C@H](O[C@@H]1O[C@H](CO)[C@@H](O)[C@@H](O)[C@H]1O)C5(C)C` [Karaviloside XI], the “Reported Biology” value [2] is listed as “Antidiabetic”.
In the case of `CN1CCN(C2CCN(C(=O)Nc3cc(Oc4ccc(NC(=O)C5(C(=O)Nc6ccc(F)cc6)CC5)c(F)c4)ccn3)CC2)CC1` [Golvatinib], the adverse side effects [1] is given as “supraventricular tachycardia, convulsion, and pulmonary embolism”.
With `C[C@H](C/C=C/C(C)(C)O)[C@H]1CC[C@@]2(C)[C@@H]3C=C[C@@]45OC(=O)[C@]3(CC[C@]12C)[C@@H]4CC[C@H](O)C5(C)C` [KD, karavilagenin D] the “amount required for ~40% cell death” value (Cal27 and JHU029 cells) was over 50 µg/mL.
For `CO[C@H]1C=C2[C@@H](CC[C@H](O[C@@H]3O[C@H](CO)[C@@H](O)[C@@H](O)[C@H]3O)C2(C)C)[C@]2(C)CC[C@]3(C)[C@@H]([C@H](C)C/C=C/C(C)(C)O)CC[C@@]3(C)[C@H]12` [Karaviloside III], the “Reported Biology” value [2] is given as “cytotoxic activity against Hep3B and HepG2 cell lines”.
For Sacranoside A, the “Reported Biology” value [2] is given as “nitric oxide inhibitory effect”.
In the case of `C[C@H](C/C=C/C(C)(C)O)[C@H]1CC[C@@]2(C)[C@@H]3[C@@H](O[C@@H]4O[C@H](CO)[C@@H](O)[C@H](O)[C@H]4O)C=C4[C@@H](CC[C@H](O)C4(C)C)[C@]3(C=O)CC[C@]12C` [Momordicoside L], the “Reported Biology” value [2] is listed as “Weak α-glucosidase inhibition”.
